Assay results as given in patent publication US10935552B2, “Aie luminogens for visualization and treatment of cancer” (THE HONG KONG UNIVERSITY OF SCIENCE AND TECHNOLOGY, priority 2015, dated 2021).

Tests used:
[1] = tested on: HeLa cells; test: Cell imaging under fluorescent microscope, HeLa cells; assay type: cell-based, human; conditions: Hela, 200 nM DPA-IQ, 10 min
Procedure: Cell culture: HeLa cells were cultured in the MEM containing 10% FBS and 1% antibiotics (100 units/mL penicillin and 100 µg/mL streptomycin) in a 5% CO2 humidity incubator at 37° C. COS-7, MDA-MB-231, MCF-7, and MDCK-II cells were culture in the DMEM containing 10% FBS and antibiotics (100 units/mL penicillin and 100 µg/mL streptomycin) in a 5% CO2 humidity incubator at 37° C.
Cell imaging: two different kind of cells were grown overnight on a 35 mm petri dish with a cover slip. The live cells were incubated with 200 nM of TPE-IQ-2O for 1, 5, 10, and 20 mins. In a typical experiment, 2 μL of a 10 mM stock solution of TPE-IQ-2O in DMSO was diluted to 2 mL with cell culture medium, followed by further dilution to desired concentration. The cells were imaged under a fluorescent microscope (BX41 Microscope) using the same excitation and emission filters: excitation filter=400-440 nm, dichroic mirror=455 nm, and emission filter=465 nm long pass.
Two different kinds of cells were grown overnight on a 35 mm petri dish with a cover slip. The live cells were incubated with 200 nM of TPE-IQ-20 for 20, 10, 5, and 1 mins. The Hela cells were stained by TPE-IQ-2O; the COS-7 cells were stained by TPE-IQ-2O; the Hela cells and COS-7 cells were co-cultured and stained together by TPE-IQ-2O. Condition: 200 nM (Filter: both close; Channel 5; EX: 400-440 nm; Exposure time: bright field: 1000 ms Fluorescence: 1000 ms.
Two different kinds of cells were grown overnight on a 35 mm petri dish with a cover slip. The live cells were incubated with 200 nM of TPE-IQ-2O for 10 mins. The Hela cells were stained by TPE-IQ-2O; the MDCKII cells were stained by TPE-IQ-2O; the MDA-MB-231 cells and COS-7 cells were co-cultured and stained together by TPE-IQ-2O. Condition: 200 nM 10 mins (Filter: both close; Channel 5; EX: 400-440 nm; Exposure time: bright field: 1000 ms Fluorescence: 1000 ms.
(§1) HepG2 cells (human hepatocarcinoma cell line), PC-9 cells (human lung adenocarcinoma cell line), Hela cells (human cervical carcinoma cell line), and LX2 cells (normal cell, human hepatic stellate cell line) were stained with 200 nM DPA-IQ for 10 min. Images were taken under the same equipment settings. Scale bar: 30 μm. Excitation wavelength: 400-440 nm.

[2] = tested on: PC-9 cells; test: Cell imaging, PC-9 cells; assay type: cell-based, human; conditions: PC-9, 200 nM DPA-IQ, 10 min
Procedure: (§2) The PC-9, HepG2, and HCC827 cells were grown overnight on a 35 mm petri dish with a cover slip. The live cells were incubated with 200 nM of TPE-IQ-2O for 20 and 10 mins. In all the experiments, the cancer cells are fluorescent in solely staining.
as §1

[3] = tested on: HepG2 cells; test: Cell imaging, HepG2 cells; assay type: cell-based, human; conditions: HepG2, 200 nM DPA-IQ, 10 min
Procedure: as §2, §1

[4] = tested on: LX2 cells; test: Cell imaging, LX2 normal cells; assay type: cell-based, human; conditions: LX2, 200 nM DPA-IQ, 10 min
Procedure: The LX2 cells were grown overnight on a 35 mm petri dish with a cover slip. The live cells were incubated with 200 nM of TPE-IQ-2O for 20 and 10 mins.
as §1

[5] = tested on: mitochondria; test: Co-staining with commercial organelle trackers in HeLa cells (mitochondria staining); assay type: cell-based, human
Procedure: The HeLa cells were grown overnight on a 35 mm petri dish with a cover slip. Then the HeLa cells were stained with 200 nM TPE-IQ-2O and Mito-tracker red (50 nM)/Lyso-tracker red (50 nM)/DAPI (500 nM) for 20 mins.
The DMSO solution of DPA-IQ was almost non-emissive while the aggregation state powder of this material emits strong green luminescence upon the UV excitation.
The commercially available MitoTracker Red FM is co-stained as a control together with Naph-IQ.

[6] = tested on: HeLa cells; test: MTT cell viability assay, HeLa cells; assay type: cell-based, human; conditions: HeLa, different concentrations, 24 hrs
Procedure: Hela cells were incubated with different concentrations of Naph-IQ in culture medium for 24 hours.
Before employing AIE-LysoY as a fluorescent visualizer of lysosome, a 3-(4,5-dimethyl-2-thiazolyl)-2,5-diphenyltetrazolium bromide (MTT) cell proliferation assay was first conducted to evaluate its cytotoxicity. […] The good biocompatibility of AIE-LysoY enables its application as a fluorescent tracer to follow the autophagic process of lysosome.

[7] = tested on: lysosome; test: Lysosome imaging in HeLa cells, co-staining with LTR; assay type: cell-based, human; conditions: HeLa cells
Procedure: Then, AIE-LysoY was applied to lysosome imaging and its lysosome-targeting performance was assessed by fluorescence microscope. HeLa cells were stained with 10 μM of AIE-LysoY for 10 min, followed by washing away the abundant molecules of AIE-LysoY and incubation with 50 nM of LTR for 30 min. […] The fluorescence of AIE-LysoY overlaps perfectly with that of LTR, indicating the lysosome-targeting of AIE-LysoY.
Quantitative analysis of the degree of overlapping of these two fluorescence signals by Pearson's coefficient (Rr), which depicts the degree of linear dependence between two variables, gives an overlapping coefficient of 0.90. The high Rr value proves that AIE-LysoY is a lysosome-selective probe. […] Changing the staining time from 10 min to 60 min, the specificity to lysosome is retained, as well as the emission contrast.
To design the lysosome-specific bioprobe, a molecular engineering approach was employed. The precursor of AIE-LysoY, FAS-Br, and two morpholine-functionalized AIEgens, TPE-2Mor and Nred-mor were prepared and applied to cell imaging. The molecular structures of TPE-2mor and Nred-mor are shown below: […]

[8] = tested on: HeLa cells; test: Cancer cell imaging for HeLa cells (TTE, TFE, fl-TFE); assay type: cell-based, human; conditions: 10 μM; TTE in HeLa and A549, TFE and fl-TFE only in HeLa
Procedure: Cell Culture. HeLa cells were cultured in MEM containing 10% FBS and 1% antibiotics (100 units/mL penicillin and 100 µg/mL streptomycin) in a 5% CO2 humidity incubator at 37° C. Cell Imaging. Lung cancer cell A549 were cultured in DMEM containing 10% FBS and antibiotics (100 units/mL penicillin and 100 µg/mL streptomycin) in a 5% CO2 humidity incubator at 37° C. Two different kind of cells were grown overnight on a 35 mm petri dish with a cover slip. The live cells were incubated with 10 μM of TTE for 15/30 mins, TFE for 30′ and fl-TFE for 30′ and 5 h (the last two have been tested only in HeLa cells). In a typical experiment, 2 μL of a 10 mM stock solution of TTE in DMSO were diluted to 1 mL with cell culture medium, followed by further dilution to desired concentration. The cells were imaged under a fluorescent microscope (BX41 Microscope) using same excitation and emission filters: excitation filter=330-385 nm, dichroic mirror=420 nm, and emission filter=400 nm long pass.
The HeLa cells were grown overnight on a 35 mm petri dish with a cover slip. The live cells were incubated with 10 μM of TTE for 30 mins, which are shown in FIG. 17A-B. The HeLa cells were incubated with 50 μM oleic acid for 6 hrs and then were co-stained by 10 μM TTE and 1 μg/mL for 15 mins.

[9] = tested on: MCF-7 cells; test: Lysosomal imaging in MCF-7 cells, co-staining with LTR; assay type: cell-based; conditions: MCF-7, 50 nm TMX 24 hrs, matched with LTR
Procedure: The behavior of TPE-TMX in cellular settings was studied as compared to TMX. MCF-7 cells were incubated with 2 μM TPE-TMX and […] TMX for 24 hrs, respectively. The cells were then washed and directly observed under the microscope without fixation. […] However, the exact intracellular location of TMX cannot be confirmed by fluorescent microscopy because its emission wavelength is not in the range of the visible spectrum. Therefore, a series of commercial fluorescent markers were used to image drug delivery of TMX. […] On the other hand, TPE-TMX, without any aid of fluorescent dye, can be successfully monitored in the cells thanks to its intense blue emission. The controls display no emission under UV irradiation.
To further confirm the subcellular distribution of TPE-TMX, LTR was also used to co-stain MCF-7 cells with TPE-TMX. […] As expected, TPE-TMX is a specific fluorescent dye to visualize lysosomal organelle structures as well as monitor the drug release.

Row | SMILES | Mitochondrial staining compared with MitoTracker Red FM [5] | Cytotoxicity by MTT assay [6] | Intracellular localisation of control probes [7] | other results
1 | CCC[n+]1cc2ccc(N(c3ccccc3)c3ccccc3)cc2c(-c2ccccc2)c1-c1ccccc1 [DPA-IQ] | can stain the mitochondrial organelle as good as the commercially available MitoTracker Red FM | low cytotoxicity | – | Emission of stained cells [1]: strong emission; Emission of stained cells [2]: strong emission; Emission of stained cells [3]: strong emission; Emission of stained cells [4]: faint emission
2 | Oc1cc(OCCCCCCBr)ccc1/C=N/N=C1c2ccccc2-c2ccccc21 [FAS-Br, (E)-2-(((9H-fluoren-9-ylidene)hydrazono)methyl)-5-((6-bromohexyl)oxy)phenol] | – | – | lights up intracellular lipid droplets and the recticulum structures of mitochondria in HeLa cells rather than lysosomes | –
3 | CCC[n+]1cc2ccc(-c3cccc4c(OC)cccc34)cc2c(-c2ccccc2)c1-c1ccccc1 [Naph-IQ] | can stain the mitochondrial organelle as good as MitoTracker Red FM with higher resolution | low cytotoxicity | – | –
4 | CN(C)c1ccc(/C=C(\C#N)c2ccc(-c3cc[n+](CCCCCCN4CCOCC4)cc3)cc2)cc1 [Nred-mor] | – | – | selectively accumulates in the mitochondria | –
5 | c1coc(C(=C(c2ccco2)c2ccco2)c2ccco2)c1 [TFE, Tetrakis(2-furyl)ethene] | – | – | – | Ability to enter cells as bioprobe [8]: Only TTE has revealed to be useful for this purpose
6 | CC/C(=C(\c1ccccc1)c1ccc(OCCN(C)C)cc1)c1ccccc1 [TMX, Tamoxifen, reference compound] | – | – | – | Subcellular distribution [9]: possible to be localized on the lysosomes
7 | CCC[n+]1cc2ccc(-c3ccc(N(c4ccccc4)c4ccccc4)cc3)cc2c(-c2ccccc2)c1-c1ccccc1 [TPA-IQ] | can stain the mitochondrial organelle as well as the commercially available MitoTracker Red FM with higher resolution | low cytotoxicity | – | –
8 | c1ccc(C(=C(c2ccccc2)c2ccc(CN3CCOCC3)cc2)c2ccc(CN3CCOCC3)cc2)cc1 [TPE-2Mor] | – | – | stains all the hydrophobic regions | –
9 | c1cc2c3ccoc3c3c4occc4c4ccoc4c3c2o1 [fl-TFE, Tetrafuro[2,3-a:3′,2′-c:2″,3″-f:3″′,2″′-h]-naphthalene] | – | – | – | Ability to enter cells as bioprobe [8]: Only TTE has revealed to be useful for this purpose
